This is an account of results in patent US20080242594A1, “Methods for Promoting Stem Cell Proliferation and Survival” (priority 2005, published 2008).

One experiment concerns HSF6 hES cells. Briefly: hES self-renewal over 3 passages. In kind it is cell-based, human. To be noted: 3 passages (3 weeks), daily treatments. An excerpt: To assess whether JAK inhibition was consistent with self-renewal of hES cells, HSF6 cells were continuously exposed to the JAK inhibitor by daily additions for three passages as single cells (three weeks) and analyzed for expression of antigens that distinguish the undifferentiated and differentiated states. The cells exposed to the drug, like the FGF2 controls, had normal morphology, were positive for Oct3/4, SSEA4, Tra-1-60, and Tra-1-81, and negative for SSEA1 (FIG. 5f, FIG. 11). To assess their ability to differentiate into neural precursors, embryoid bodies (EBs) were generated and many Sox1+/Nestin+ cells obtained (FIG. 11). Finally, to assess that the cells retained their ability to generate TH+ neurons, direct differentiation protocols were performed; a high proportion of TH+/TUJ1+ cells were obtained (FIG. 5g).

The next experiment relates to H9 hES cells. Briefly: hES colony number formation, H9. Type of experiment: cell-based, human. To be noted: H9 line. An excerpt: (§1) The human ES cell lines HSF-6 (University of California, San Francisco; NIH # UC06, Passage 38-120) and H1 and H9 (WiCell Research Institute, NIH # WA01 and […]) were maintained on mouse embryonic fibroblasts (MEF) according to the suppliers' protocols. Immunocytochemistry and FACS analysis for the expression of Oct4 and SSEA4 and SKY karyotyping established that the starting cells are undifferentiated and have a normal set of chromosomes. For single cell survival experiments, hES colonies were harvested after treatment with 1.5 mg/ml collagenase type IV (Invitrogen), separated from the MEF feeder cells by repeated washing by gravity, gently triturated to break up colonies into small aggregates, further dissociated into a single cell solution by trypsination (0.05% trypsin/0.04% EDTA) and transferred on MEF feeder cells at a density of 10000 cells/ml. Oct-4 positive colonies were counted six days after plating. […]
(§2) The pro-survival effects of activation of Notch and inhibition of JAK was tested on HSF-6 (NIH code UC06, http://escell.ucsf.edu), H1 (NIH code WA01, www.wicell.org) and H9 (NIH code WA09, www.wicell.org) hES cells. Singly dissociated hES cells were plated on mouse embryo fibroblasts (MEFs), treated daily for one week and colony numbers counted. […]

Another experiment relates to H1 hES cells. Briefly: hES colony number formation, H1. Type of experiment: cell-based, human. To be noted: H1 line.
Text: as §1, §2

The subject of the next experiment is Akt. Briefly: Akt phosphorylation immunoblot in CNS stem cells. In kind it is cell-based, mouse. To be noted: for Akt (total) / Akt-pS473 / Akt-pT308: absence of insulin. The protocol: Insulin in the medium is also thought to promote cell survival. […] Seeding cells in the absence of insulin caused the plating efficiency measured at five days to drop to 29.9%±37.9 (FIG. 1e). Delta-4 was able to compensate for the lack of insulin in the medium, and restored plating efficiency (125%±19.4). Because Notch activation improved survival, activation of Akt, a ser/threonine kinase known to be involved in cell survival, was assayed. Notch activation rapidly (5 minutes) promoted the phosphorylation of Akt on Ser473 and […] in both the presence and absence of insulin (FIG. 1f).
(Immunoblotting shows a protein as a band on a membrane.)

For experiment [1], the system named is Primary human central nervous system neural stem cell from pediatric subventricular zones. Briefly: Colony generation of primary human neural stem cells. To be noted: expanded in FGF2. Type of experiment: cell-based. The source says:
Pharmacological Notch activation is beneficial also to primary neural stem cell cultures from non-cancerous human brain. Primary human central nervous system neural stem cell were produced from pediatric subventricular zones. These cells expanded in FGF2, and upon FGF2 withdrawal differentiated to produce colonies containing neurons, astrocytes, and oligodendrocytes (see Table 11). […] FGF2 withdrawal and subsequent differentiation of central nervous system neural stem cell cultures (fetal mouse) regulated Hes3 expression and STAT3 expression and phosphorylation in neurons, astrocytes, oligodendrocytes.

Experiment [2] concerns mouse fetal central nervous system stem cell cultures. Briefly: Survival of fetal CNS stem cell cultures with insulin and Dll4. Type of experiment: cell-based. The protocol: As there was a tight correlation between the Notch survival pathway and Hes3, it was investigated as to whether Hes3 is a mediator of the Notch pro-survival signalling. It was determined that both insulin and Notch activation promote the survival of foetal and adult neural stem cell cultures and their effects are additive (Tables 8-9).

Experiment [3] concerns cultures from Hes3 knock-out mice. Briefly: Survival of adult SVZ stem cell cultures, Hes3 knock-out mice. To be noted: Hes3 knock-out culture. Type of experiment: cell-based, mouse. The protocol:
It was determined that adult mouse subventricular zone central nervous system stem cell cultures from wild-type mice respond to D114 by generating twenty-four times more cells, whereas cultures from Hes3 knock-out mice respond to D114 by generating only three times more cells. Thus, in adult mouse neural stem cell cultures, D114 greatly promotes the survival of wild-type cells (23.7±1.7 fold increase), whereas it only slightly stimulates Hes3 knock-out culture survival (2.9±0.2 fold increase).

The next experiment concerns IGF1/insulin receptor. Briefly: IGF1/insulin receptor phosphorylation in foetal NSC cultures. In kind it is cell-based, mouse. The protocol:
Specifically, D114 induced the phosphorylation of IGF1/insulin receptor. Peak phosphorylation occurred at 2-5 minutes.
It was determined that insulin facilitates Notch cleavage using immunocytochemical detection.

The mark [4] stands for this setting: Insulin withdrawal, 2 days and then treat for 1 h.

Take `CC(C)(C)c1nc2c3ccc(F)cc3c3c(=O)[nH]ccc3c2[nH]1` [JAK Inhibitor, 2-(1,1-Dimethylethyl)-9-fluoro-3,6-dihydro-7H-benz[h]-imidaz[4,5-f]isoquinolin-7-one]: the “morphology and antigenic profile” value with HSF6 hES cells was “retained normal morphology and antigenic profile of undifferentiated hES cells”. Further, the colony number formation is recorded as 347.6%±59.5 in the experiment with H9 hES cells and 448.5%±57.4 in the experiment with H1 hES cells.
Take “Delta-4: soluble Notch ligand Delta-4 (1389-D4) from R&D”: in the experiment on Akt (Dll4, 5 min), the “Akt (total)” value was “Medium”, the Akt-pS473 result is given as “High” and the Akt-pT308 result is recorded as “High”. For the same compound, in the experiment on Akt (Dll4, 10 min), the “Akt (total)” value was “Medium”, the Akt-pS473 result is listed as “Medium” and the Akt-pT308 entry is listed as “Medium”. The “time of peak Akt phosphorylation on Ser473 and Ser308” value with Akt (presence and absence of insulin, Western blotting) amounted to 5 min. For the same compound, the “colonies containing neurons, astrocytes, and oligodendrocytes” value in experiment [1] was “generated significantly more of these colonies”. Further, the “Cell #” value in experiment [2] is “High”. Also, the “survival, fold increase in cells” value in experiment [3] came out at 2.9±0.2 fold. Besides, in the experiment on IGF1/insulin receptor (setting [4]), the “pIGF1 (19H7)” value was “Low” and the “pIGF1 (3021)” value is listed as “Low”. Besides, the “time of peak phosphorylation of IGF1/insulin receptor” value with IGF1/insulin receptor (foetal NSC cultures) was in the range of 2 to 5 min.
